Source: patent US20120082736A1, “Small-molecule TNF modulator to reduce the side effects of chemotherapy and radiotherapy” (GeneBlue Corporation, priority 2010, published 2012)

Tested on: C57BL/6 mice, liver irradiation
Assay: Liver irradiation: serum AST and ALT activities (Examples 5-7)
Type: in vivo
Protocol: FIG. 8. Effect of UTL compounds on AST and ALT with and without radiation C57BL/6 male mice were treated with UTL-5b, -5d, and -5g each in 0.3 mL vehicle containing DMSO/(Cremophor:propylene glycol 4:6 v/v)/saline, 5/5/90 v/v by i.p. injection (30 mg/kg) 1 hr prior to liver irradiation with 15 Gy. Serum was obtained at 2 hr after irradiation and assayed for AST and ALT activities. Data are means±standard deviation (S.D.) * indicates p<0.05, n=4.
Mice were treated with various doses of UTL-5g (3.75, 7.5, 15, 30, and 60 mg/kg, i.p.) 1 hr prior to liver radiation with 15 Gy. Serum was obtained at 2 hr after irradiation and assayed for AST (4a) and ALT activities (4b).
FIG. 11. Radiation dose escalation and radioprotection by UTL-5 g Mice were pre-treated with UTL-5g (60mg/kg, i.p.) at 1 hr prior to radiation dose escalation (0, 5, 15, and 25 Gy). Serum was harvested at 2 hr after injections and was subjected to AST/ALT measurements as described in Methods. Results were compared to control mice received control vehicle. Data are means±standard deviation (* p<0.05, 2-tailed paired t-Test comparing treated and untreated groups, n=4).
In a preliminary study, three UTL compounds (5b, 5d and 5g) were examined for their radioprotective effect in C57BL/6 mice. One hr prior to liver irradiation (15 Gy), animals were treated with the test compounds by i.p. injection (30 mg/kg). Two hr later, the animals were sacrificed and serum AST and ALT enzyme activities were determined.
During the preliminary study, it was found unexpectedly that the vehicle used, DMSO/(Cremophor:propylene glycol […])/saline 5:5:90 v/v was associated with some liver toxicity as indicated by the moderate increase of serum AST and ALT activities in animals treated with vehicle alone.
Based on the preliminary studies, UTL-5g was selected for dose-dependent radioprotective studies. In this study, animals were treated with increasing doses of UTL-5g (from 0 to 60 mg/kg) one hr prior to liver irradiation (15 Gy). Two hr after irradiation, animals were sacrificed and serum AST/ALT enzyme activities and liver TNF-α levels were determined. […] For animals pre-treated with UTL-5g at 30 mg/kg, AST/ALT activity levels were lowered from 135/29 to 89/22 Unit/L, and those pre-treated with UTL-5g at 60 mg/kg, AST/ALT levels were reduced from 135/29 to 74/19 Unit/L, respectively.
Next, we investigated the radioprotective effect of UTL-5g with increased irradiation doses. In this study, animals were pre-treated with UTL-5g at 60 mg/kg and randomly divided into 4 groups. One hr later, they were subjected to liver irradiation at 0, 5, 15 and 25 Gy. Consistent with the previous study, pretreatment with UTL-5 g at 60 mg/kg was radioprotective against 15 Gy as evidenced by the reduction of serum AST activity (103.0 vs. 159.8 Unit/L in UTL-5g and in control vehicle groups, respectively) and ALT activity (17.8 vs. 32.3 Unit/L in UTL-5g and in control vehicle groups respectively) (FIG. 11).

Cc1cc(C(=O)Nc2ccc(Cl)cc2Cl)no1 [UTL-5g]
serum AST and ALT levels induced by irradiation (30 mg/kg i.p. 1 hr prior to liver irradiation 15 Gy, serum 2 hr after, C57BL/6 mice, preliminary study): the most effective in lowering both AST and ALT enzyme activities
serum AST/ALT activities, dose dependence (UTL-5g 0 to 60 mg/kg i.p. 1 hr before liver irradiation 15 Gy, serum 2 hr after): significantly reduced serum AST/ALT activities in a drug dose-dependent manner
serum ALT activity (UTL-5g 30 mg/kg 1 hr before 15 Gy, irradiated vehicle 29 (Example 6)): 22 Unit/L
serum AST activity (UTL-5g 30 mg/kg 1 hr before 15 Gy, irradiated vehicle 135 (Example 6)): 89 Unit/L
AST and ALT levels (UTL-5g 60 mg/kg 1 hr before 5 Gy): slightly but not significantly changed
serum ALT activity (UTL-5g 60 mg/kg 1 hr before 15 Gy, control vehicle 32.3 (Example 7)): 17.8 Unit/L
serum AST activity (UTL-5g 60 mg/kg 1 hr before 15 Gy, control vehicle 159.8 (Example 7)): 103.0 Unit/L
serum ALT activity (UTL-5g 60 mg/kg 1 hr before 15 Gy, irradiated vehicle 29 (Example 6)): 19 Unit/L
serum AST activity (UTL-5g 60 mg/kg 1 hr before 15 Gy, irradiated vehicle 135 (Example 6)): 74 Unit/L
radioprotection (AST/ALT) (UTL-5g 60 mg/kg 1 hr before 25 Gy): only moderate protection
AST and ALT enzyme activities without irradiation (UTL-5g 60 mg/kg alone, animals without irradiation): slightly increased
